Data reported in PubChem BioAssay (NCI).
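Assay format: 96-well plates, 48-hour exposure. TGI denotes the concentration required for complete inhibition of growth.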

Assays:
Assay in all cases: NCI anticancer screen, dose series, 48 h
HCT-116 colon = system: HCT-116 colon
NCI-H460 lung = system: NCI-H460 lung
786-0 renal = system: 786-0 renal
SF-295 CNS = system: SF-295 CNS
HOP-62 NSCLC = system: HOP-62 NSCLC
MDA-N = system: MDA-N
OVCAR-3 ovarian = system: OVCAR-3 ovarian
MOLT-4 leukemia = system: MOLT-4 leukemia
COLO 205 colon = system: COLO 205 colon
SK-MEL-2 melanoma = system: SK-MEL-2 melanoma
SK-OV-3 ovarian = system: SK-OV-3 ovarian
M14 melanoma = system: M14 melanoma
LOX IMVI melanoma = system: LOX IMVI melanoma
HOP-92 NSCLC = system: HOP-92 NSCLC
HT29 colon = system: HT29 colon
SNB-75 CNS = system: SNB-75 CNS
SK-MEL-5 melanoma = system: SK-MEL-5 melanoma
BT-549 breast = system: BT-549 breast
IGROV1 ovarian = system: IGROV1 ovarian
MCF7 breast = system: MCF7 breast
NCI-H23 lung = system: NCI-H23 lung
SK-MEL-28 melanoma = system: SK-MEL-28 melanoma
HCC-2998 colon = system: HCC-2998 colon
K-562 leukemia = system: K-562 leukemia
NCI/ADR-RES ovarian = system: NCI/ADR-RES ovarian
OVCAR-4 ovarian = system: OVCAR-4 ovarian
PC-3 prostate = system: PC-3 prostate
KM12 colon = system: KM12 colon
A549 NSCLC = system: A549 NSCLC
SNB-19 CNS = system: SNB-19 CNS
OVCAR-8 ovarian = system: OVCAR-8 ovarian
ACHN renal = system: ACHN renal
MDA-MB-435 = system: MDA-MB-435
SF-539 CNS = system: SF-539 CNS
T-47D breast = system: T-47D breast
UO-31 renal = system: UO-31 renal
CCRF-CEM leukemia = system: CCRF-CEM leukemia
EKVX NSCLC = system: EKVX NSCLC
HCT-15 colon = system: HCT-15 colon
SR leukemia = system: SR leukemia
DU-145 prostate = system: DU-145 prostate
OVCAR-5 ovarian = system: OVCAR-5 ovarian
UACC-257 melanoma = system: UACC-257 melanoma
SN12C renal = system: SN12C renal
RPMI-8226 leukemia = system: RPMI-8226 leukemia
SW-620 colon = system: SW-620 colon
CAKI-1 renal = system: CAKI-1 renal
NCI-H226 lung = system: NCI-H226 lung
U251 CNS = system: U251 CNS
TK-10 renal = system: TK-10 renal
MALME-3M melanoma = system: MALME-3M melanoma
SF-268 CNS = system: SF-268 CNS
NCI-H522 lung = system: NCI-H522 lung
UACC-62 melanoma = system: UACC-62 melanoma
HS 578T breast = system: HS 578T breast
HL-60(TB) leukemia = system: HL-60(TB) leukemia

For `CCCCCCc1ccc(CCCCCCCC(=O)O)o1`, the TGI (HCT-116 colon) was greater than 100 µM, the TGI (NCI-H460 lung) was greater than 100 µM and the TGI (786-0 renal) was greater than 100 µM. For the same compound, the TGI (SF-295 CNS) was greater than 100 µM, the TGI (HOP-62 NSCLC) was greater than 100 µM and the TGI (MDA-N) was greater than 100 µM. The TGI (OVCAR-3 ovarian) was greater than 100 µM, the TGI (MOLT-4 leukemia) was 36.1 µM and the TGI (COLO 205 colon) was greater than 100 µM. It also gave a TGI (SK-MEL-2 melanoma) greater than 100 µM, a TGI (SK-OV-3 ovarian) greater than 100 µM and a TGI (M14 melanoma) greater than 100 µM. The TGI (LOX IMVI melanoma) was greater than 100 µM, the TGI (HOP-92 NSCLC) was greater than 100 µM and the TGI (HT29 colon) was greater than 100 µM. The TGI (SNB-75 CNS) was greater than 100 µM, the TGI (SK-MEL-5 melanoma) was greater than 100 µM and the TGI (BT-549 breast) was greater than 100 µM. The TGI (IGROV1 ovarian) was greater than 100 µM, the TGI (MCF7 breast) was greater than 100 µM and the TGI (NCI-H23 lung) was greater than 100 µM. It also gave a TGI (SK-MEL-28 melanoma) greater than 100 µM, a TGI (HCC-2998 colon) greater than 100 µM and a TGI (K-562 leukemia) of 71.6 µM. The TGI (NCI/ADR-RES ovarian) was greater than 100 µM, the TGI (OVCAR-4 ovarian) was greater than 100 µM and the TGI (PC-3 prostate) was greater than 100 µM. For the same compound, the TGI (KM12 colon) was greater than 100 µM, the TGI (A549 NSCLC) was greater than 100 µM and the TGI (SNB-19 CNS) was greater than 100 µM. For the same compound, the TGI (OVCAR-8 ovarian) was greater than 100 µM, the TGI (ACHN renal) was greater than 100 µM and the TGI (MDA-MB-435) was greater than 100 µM. For the same compound, the TGI (SF-539 CNS) was greater than 100 µM, the TGI (T-47D breast) was greater than 100 µM and the TGI (UO-31 renal) was greater than 100 µM. For the same compound, the TGI (CCRF-CEM leukemia) was greater than 100 µM, the TGI (EKVX NSCLC) was greater than 100 µM and the TGI (HCT-15 colon) was greater than 100 µM. The TGI (SR leukemia) was greater than 100 µM, the TGI (DU-145 prostate) was greater than 100 µM and the TGI (OVCAR-5 ovarian) was greater than 100 µM. It also gave a TGI (UACC-257 melanoma) greater than 100 µM, a TGI (SN12C renal) greater than 100 µM and a TGI (RPMI-8226 leukemia) greater than 100 µM. The TGI (SW-620 colon) was greater than 100 µM, the TGI (CAKI-1 renal) was greater than 100 µM and the TGI (NCI-H226 lung) was greater than 100 µM.
`O=[N+]([O-])c1c(O)c2nonc2c2nn(-c3ccccc3)nc12` showed a TGI (HCT-116 colon) greater than 100 µM, a TGI (NCI-H460 lung) greater than 100 µM and a TGI (786-0 renal) greater than 100 µM. The TGI (SF-295 CNS) was greater than 100 µM, the TGI (HOP-62 NSCLC) was greater than 100 µM and the TGI (MDA-N) was greater than 100 µM. It also gave a TGI (OVCAR-3 ovarian) greater than 100 µM, a TGI (MOLT-4 leukemia) greater than 100 µM and a TGI (COLO 205 colon) greater than 100 µM. For the same compound, the TGI (SK-MEL-2 melanoma) was greater than 100 µM, the TGI (SK-OV-3 ovarian) was greater than 100 µM and the TGI (U251 CNS) was greater than 100 µM. The TGI (M14 melanoma) was greater than 100 µM, the TGI (LOX IMVI melanoma) was greater than 100 µM and the TGI (HOP-92 NSCLC) was greater than 100 µM. It also gave a TGI (TK-10 renal) greater than 100 µM, a TGI (HT29 colon) greater than 100 µM and a TGI (SNB-75 CNS) greater than 100 µM. It also gave a TGI (SK-MEL-5 melanoma) greater than 100 µM, a TGI (BT-549 breast) greater than 100 µM and a TGI (IGROV1 ovarian) greater than 100 µM. For the same compound, the TGI (MCF7 breast) was greater than 100 µM, the TGI (MALME-3M melanoma) was greater than 100 µM and the TGI (NCI-H23 lung) was greater than 100 µM. For the same compound, the TGI (SK-MEL-28 melanoma) was greater than 100 µM, the TGI (HCC-2998 colon) was greater than 100 µM and the TGI (K-562 leukemia) was greater than 100 µM. For the same compound, the TGI (SF-268 CNS) was greater than 100 µM, the TGI (NCI/ADR-RES ovarian) was greater than 100 µM and the TGI (OVCAR-4 ovarian) was greater than 100 µM. For the same compound, the TGI (PC-3 prostate) was greater than 100 µM, the TGI (KM12 colon) was greater than 100 µM and the TGI (NCI-H522 lung) was greater than 100 µM. The TGI (A549 NSCLC) was greater than 100 µM, the TGI (SNB-19 CNS) was greater than 100 µM and the TGI (OVCAR-8 ovarian) was greater than 100 µM. The TGI (ACHN renal) was greater than 100 µM, the TGI (MDA-MB-435) was greater than 100 µM and the TGI (SF-539 CNS) was greater than 100 µM. The TGI (T-47D breast) was greater than 100 µM, the TGI (UO-31 renal) was greater than 100 µM and the TGI (UACC-62 melanoma) was greater than 100 µM. It also gave a TGI (CCRF-CEM leukemia) greater than 100 µM, a TGI (EKVX NSCLC) greater than 100 µM and a TGI (HS 578T breast) greater than 100 µM. For the same compound, the TGI (HCT-15 colon) was greater than 100 µM, the TGI (SR leukemia) was greater than 100 µM and the TGI (DU-145 prostate) was greater than 100 µM. The TGI (HL-60(TB) leukemia) was greater than 100 µM, the TGI (OVCAR-5 ovarian) was greater than 100 µM and the TGI (UACC-257 melanoma) was greater than 100 µM. It also gave a TGI (SN12C renal) greater than 100 µM, a TGI (RPMI-8226 leukemia) greater than 100 µM and a TGI (SW-620 colon) greater than 100 µM. It also gave a TGI (CAKI-1 renal) greater than 100 µM and a TGI (NCI-H226 lung) of 79.1 µM.
